Experimental data taken from publication PMC9386805 (ACS Omega, 2022).
Values after ≈ are worked out from the molar mass of the structure shown.

Legend:
Assay in all cases: MIC by microdilution
Type in all cases: cell-based
[1] = tested on: P. aeruginosa (Schroeter) Migula (ATCC 27853); details: Pseudomonas aeruginosa, ATCC27853, read-out: MIC, PA
[2] = tested on: Salmonella enterica subsp. enterica serovar Typhimurium (ATCC 14028); details: ATCC14028|TYPHIMURIUM, read-out: MIC, ST
[3] = tested on: E. coli (Migula) Castellani and Chalmers (ATCC 25922); details: Escherichia coli, ATCC25922, read-out: MIC, EC
[4] = tested on: S. aureus subsp. aureus Rosenbach (ATCC 25923); details: Staphylococcus aureus, ATCC25923, read-out: MIC, SA

**Q.** What does the source list for CNC(C)C1CCC(N)C(OC2C(N)CC(N)C(OC3OCC(C)(O)C(NC)C3O)C2O)O1 (stereo not shown) [gentamicin]?
**A.** MIC [1]: 4 µg/mL (≈ 8.38 µM); MIC [2]: 2 µg/mL (≈ 4.19 µM); MIC [3]: 8 µg/mL (≈ 16.8 µM); MIC [4]: 4 µg/mL (≈ 8.38 µM)
